For assay [1], the target named is Mitogen-activated protein kinase 8 (Homo sapiens, UniProt P45983). Description: Inhibition of JNK1 by ATF2 phosphorylation assay. It is filed as functional.
For assay [2], the target named is c-Jun N-terminal kinase, JNK (Homo sapiens, UniProt P45983+P53779+P45984). Put plainly: Inhibition of PcJun phosphorylation in HepG2 cells. It counts as functional, cell-based.
For assay [3], the target named is Mitogen-activated protein kinase 9 (Homo sapiens, UniProt P45984). Description: Inhibition of JNK2 by ATF2 phosphorylation assay. It counts as functional.
Sequence of Mitogen-activated protein kinase 9 (P45984 whole entry): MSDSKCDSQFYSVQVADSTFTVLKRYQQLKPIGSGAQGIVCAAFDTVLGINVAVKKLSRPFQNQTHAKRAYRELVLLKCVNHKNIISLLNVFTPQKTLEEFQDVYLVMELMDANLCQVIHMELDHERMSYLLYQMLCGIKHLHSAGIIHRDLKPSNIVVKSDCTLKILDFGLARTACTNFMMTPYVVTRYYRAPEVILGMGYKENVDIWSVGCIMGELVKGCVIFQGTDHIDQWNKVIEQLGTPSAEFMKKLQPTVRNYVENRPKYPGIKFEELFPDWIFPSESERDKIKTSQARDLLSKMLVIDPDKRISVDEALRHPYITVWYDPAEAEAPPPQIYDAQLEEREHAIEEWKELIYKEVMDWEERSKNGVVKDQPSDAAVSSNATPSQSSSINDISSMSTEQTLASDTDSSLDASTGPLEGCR

Molecules are shown by their SMILES.

Sequence of Mitogen-activated protein kinase 8 (P45983 whole entry): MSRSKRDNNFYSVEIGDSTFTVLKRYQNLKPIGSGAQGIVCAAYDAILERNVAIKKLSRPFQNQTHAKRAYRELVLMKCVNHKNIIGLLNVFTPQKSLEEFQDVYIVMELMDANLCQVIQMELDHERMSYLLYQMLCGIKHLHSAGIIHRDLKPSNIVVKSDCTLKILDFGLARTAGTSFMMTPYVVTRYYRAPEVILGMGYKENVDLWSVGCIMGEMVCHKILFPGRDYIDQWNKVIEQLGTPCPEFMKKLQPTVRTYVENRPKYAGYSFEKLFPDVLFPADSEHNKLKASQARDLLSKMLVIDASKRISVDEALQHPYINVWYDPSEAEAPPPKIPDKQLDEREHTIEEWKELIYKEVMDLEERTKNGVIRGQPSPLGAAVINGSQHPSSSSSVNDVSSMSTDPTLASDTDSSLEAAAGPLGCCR

Consider `CCOc1nc(C(=O)NCc2ccc(S(C)(=O)=O)cc2)cc(N)c1C#CCO`, for which the figures for the IC50 in assay [1] and in assay [2] were 1090 nM and 5700 nM, respectively.

In the case of `CS(=O)(=O)c1ccc(CNC(=O)c2cc(N)c(C#N)c(NCCc3ccccc3)n2)cc1`, the IC50 (commonly the concentration needed to halve the response being measured) in assay [1] is 260 nM; in assay [3] it was 1000 nM; in assay [2], 2700 nM.

In the case of `COc1cccc(-c2nc(C(=O)NCc3ccc(S(C)(=O)=O)cc3)cc(N)c2C#N)c1`, the values for the IC50 in assay [1], in assay [3] and in assay [2] were 430 nM, 600 nM and 1800 nM, respectively.

In the case of `C/C=C/c1nc(C(=O)NCc2ccc(S(C)(=O)=O)cc2)cc(N)c1C#N`, the IC50 in assay [1] stood at 48 nM; in assay [3], 230 nM; in assay [2], 890 nM.

As for `CC(C)[C@@H](CO)Nc1nc(C(=O)NCc2ccc(S(C)(=O)=O)cc2)cc(N)c1C#N`, the IC50 in assay [1] was determined as 1500 nM; in assay [3] it was 1400 nM.

In the case of `CS(=O)(=O)c1ccc(CNC(=O)c2cc(N)c(C#N)c(-c3ccsc3)n2)cc1`, the IC50 in assay [1] was found to be 81 nM; in assay [3], 390 nM; in assay [2], 610 nM.

Consider `C[C@H](CO)Nc1nc(C(=O)NCc2ccc(S(C)(=O)=O)cc2)cc(N)c1C#N`, for which the results for the IC50 in assay [1], in assay [3] and in assay [2] were 180 nM, 320 nM and over 10000 nM, respectively.

Take `C/C=C\c1nc(C(=O)NCc2ccc(S(C)(=O)=O)cc2)cc(N)c1C#N`: the IC50 in assay [1] worked out at 150 nM; in assay [3] it was 260 nM; in assay [2] it was 5500 nM.

Regarding `CS(=O)(=O)c1ccc(CNC(=O)c2cc(N)c(C#N)c(NC3CCC3)n2)cc1`, the IC50 in assay [1] was 85 nM; in assay [3] it was 160 nM; in assay [2], 620 nM.

`CS(=O)(=O)c1ccc(CNC(=O)c2cc(N)c(C#N)c(OCC3CCCC3)n2)cc1`: the IC50 amounted to 390 nM in assay [1], 610 nM in assay [3] and 490 nM in assay [2].

`CCCNC(=O)c1c(N)cc(C(=O)NCc2ccc(S(C)(=O)=O)cc2)nc1OCC` showed an IC50 in assay [1] of 5250 nM.

Turning to `CS(=O)(=O)c1ccc(CNC(=O)c2cc(N)c(C#N)c(-c3ccc(C(=O)O)s3)n2)cc1`, the IC50 is 250 nM in assay [1], 160 nM in assay [3] and over 10000 nM in assay [2].

Turning to `CS(=O)(=O)c1ccc(CNC(=O)c2cc(N)c(C#N)c(NCCCO)n2)cc1`, the results for the IC50 in assay [1], in assay [3] and in assay [2] were 54 nM, 180 nM and 8300 nM, respectively.

As for `CS(=O)(=O)c1ccc(CNC(=O)c2cc(N)c(C#N)c(-c3cccc(Cl)c3)n2)cc1`, the IC50 was found to be 1180 nM in assay [1], 840 nM in assay [3] and 1200 nM in assay [2].

Consider `CC(C)Oc1nc(C(=O)NCc2ccc(S(C)(=O)=O)cc2)cc(N)c1C#N`, for which the IC50 in assay [1] is 15 nM; in assay [3] it was 38 nM; in assay [2], 250 nM.

`CN(C)CCNc1nc(C(=O)NCc2ccc(S(C)(=O)=O)cc2)cc(N)c1C#N`: the IC50 in assay [1] turned out to be 7300 nM; in assay [3] it was 9200 nM.

On to `CS(=O)(=O)c1ccc(CNC(=O)c2cc(N)c(C#N)c(/C=C/c3ccccc3)n2)cc1`, for which the IC50 amounted to 1450 nM in assay [1], 1290 nM in assay [3] and 350 nM in assay [2].

For `CC(=O)NCCNc1nc(C(=O)NCc2ccc(S(C)(=O)=O)cc2)cc(N)c1C#N`, the figures for the IC50 in assay [1], in assay [3] and in assay [2] were 59 nM, 81 nM and over 10000 nM, respectively.

For `CS(=O)(=O)c1ccc(CNC(=O)c2cc(N)c(C#N)c(/C=C/C(=O)O)n2)cc1`, the IC50 in assay [1] was 300 nM; in assay [3], 430 nM; in assay [2] it was over 2500 nM.

For `C#C/C=C/c1c(N)cc(C(=O)NCc2ccc(S(C)(=O)=O)cc2)nc1OCC`, the IC50 came to 79 nM in assay [1], 300 nM in assay [3] and 1400 nM in assay [2].

`CCOc1nc(C(=O)NCc2ccc(S(C)(=O)=O)cc2)cc(N)c1/C=C/c1ccccc1`: the IC50 turned out to be 2430 nM in assay [1], 4130 nM in assay [3] and 6920 nM in assay [2].

On to `CS(=O)(=O)c1ccc(CNC(=O)c2cc(N)c(C#N)c(-c3cccnc3)n2)cc1`, for which the IC50 in assay [1] was determined as 320 nM; in assay [3], 340 nM; in assay [2] it was 7300 nM.

Take `CS(=O)(=O)c1ccc(CNC(=O)c2cc(N)c(C#N)c(-c3ccsc3CNCc3ccccc3)n2)cc1`: the values for the IC50 in assay [1] and in assay [2] were 1990 nM and 8010 nM, respectively.

For the molecule `CCCCC#Cc1c(N)cc(C(=O)NCc2ccc(S(C)(=O)=O)cc2)nc1OCC`, in assay [1], the IC50 was over 10000 nM.

Turning to `C#Cc1c(N)cc(C(=O)NCc2ccc(S(C)(=O)=O)cc2)nc1OCC`, the IC50 in assay [1] worked out at 350 nM; in assay [3], 300 nM; in assay [2], 1890 nM.

For the molecule `CS(=O)(=O)c1ccc(CNC(=O)c2cc(N)c(C#N)c(NCCO)n2)cc1`, the results for the IC50 in assay [1], in assay [3] and in assay [2] were 93 nM, 150 nM and over 10000 nM, respectively.

In the case of `CS(=O)(=O)c1ccc(CNC(=O)c2cc(N)c(C#N)c(NCCC(N)=O)n2)cc1`, the results for the IC50 in assay [1], in assay [3] and in assay [2] were 66 nM, 87 nM and over 10000 nM, respectively.

For the molecule `CCOc1nc(C(=O)NCc2ccc(S(C)(=O)=O)cc2)cc(N)c1/C=C/C(C)(C)C`, the IC50 was 2930 nM in assay [1], 4160 nM in assay [3] and over 10000 nM in assay [2].

As for `CS(=O)(=O)c1ccc(CNC(=O)c2cc(N)c(C#N)c(NCCNC(N)=O)n2)cc1`, the IC50 in assay [1] is 93 nM; in assay [2], over 10000 nM.

For the molecule `C[C@@H](CO)Nc1nc(C(=O)NCc2ccc(S(C)(=O)=O)cc2)cc(N)c1C#N`, the IC50 in assay [1] came out at 22 nM; in assay [3] it was 30 nM; in assay [2], 2600 nM.

As for `CS(=O)(=O)c1ccc(CNC(=O)c2cc(N)c(C#N)c(NC3CCCC3)n2)cc1`, the IC50 was 96 nM in assay [1], 290 nM in assay [3] and 480 nM in assay [2].

For `CS(=O)(=O)c1ccc(CNC(=O)c2cc(N)c(C#N)c(NCc3ccccc3)n2)cc1`, the IC50 is 820 nM in assay [1] and 4700 nM in assay [3].

As to `C=Cc1c(N)cc(C(=O)NCc2ccc(S(C)(=O)=O)cc2)nc1OCC`, the IC50 in assay [1] stood at 1180 nM; in assay [3], 1460 nM; in assay [2] it was 4630 nM.

On to `CS(=O)(=O)c1ccc(CNC(=O)c2cc(N)c(C#N)c(NC(CO)CO)n2)cc1`, for which the IC50 was 76 nM in assay [1], 100 nM in assay [3] and over 10000 nM in assay [2].

In the case of `CCOc1nc(C(=O)NCc2ccc(S(C)(=O)=O)cc2)cc(N)c1C#C/C=C/CO`, the IC50 in assay [1] is 1550 nM; in assay [3], 4320 nM; in assay [2], 5240 nM.

Turning to `CCOc1nc(C(=O)NCc2ccc(S(C)(=O)=O)cc2)cc(N)c1C#CCCO`, the IC50 in assay [1] amounted to 2240 nM; in assay [3], 4610 nM; in assay [2] it was 7360 nM.

For the molecule `CS(=O)(=O)c1ccc(CNC(=O)c2cc(N)c(C#N)c(-c3ccsc3CO)n2)cc1`, the values for the IC50 in assay [1], in assay [3] and in assay [2] were 570 nM, 680 nM and 10800 nM, respectively.

On to `CS(=O)(=O)c1ccc(CNC(=O)c2cc(N)c(C#N)c(NC3CC3)n2)cc1`, for which the IC50 in assay [1] is 32 nM; in assay [3] it was 69 nM; in assay [2], 1200 nM.

Regarding `CCOc1nc(C(=O)NCc2ccc(S(C)(=O)=O)cc2)cc(N)c1C(N)=O`, the values for the IC50 in assay [1], in assay [3] and in assay [2] were 318 nM, 969 nM and 7540 nM, respectively.

`CS(=O)(=O)c1ccc(CNC(=O)c2cc(N)c(C#N)c(-c3cccc(S(C)(=O)=O)c3)n2)cc1`: the values for the IC50 in assay [1], in assay [3] and in assay [2] were 43 nM, 97 nM and 10500 nM, respectively.

`CS(=O)(=O)c1ccc(CNC(=O)c2cc(N)c(C#N)c(-c3cncnc3)n2)cc1`: the IC50 was 620 nM in assay [1], 860 nM in assay [3] and over 10000 nM in assay [2].

For `CS(=O)(=O)c1ccc(CNC(=O)c2cc(N)c(C#N)c(-c3ccncc3)n2)cc1`, the IC50 in assay [1] was found to be 530 nM; in assay [3], 660 nM.

On to `CCOc1nc(C(=O)NCc2ccc(S(C)(=O)=O)cc2)cc(N)c1/C=C/C#N`, for which the IC50 in assay [1] turned out to be 410 nM; in assay [3] it was 1790 nM; in assay [2], 807 nM.

With `CS(=O)(=O)c1ccc(CNC(=O)c2cc(N)c(C#N)c(-c3cccc(O)c3)n2)cc1`, the IC50 in assay [1] was 200 nM; in assay [3], 240 nM; in assay [2], 9400 nM.

Take `COCCNc1nc(C(=O)NCc2ccc(S(C)(=O)=O)cc2)cc(N)c1C#N`: the IC50 in assay [1] came to 120 nM; in assay [3] it was 210 nM; in assay [2], 5900 nM.

`CC(C)COc1nc(C(=O)NCc2ccc(S(C)(=O)=O)cc2)cc(N)c1C#N`: the IC50 was 88 nM in assay [1], 370 nM in assay [3] and 700 nM in assay [2].

As to `CC(C)NC(=O)c1nc(C(=O)NCc2ccc(S(C)(=O)=O)cc2)cc(N)c1C#N`, the results for the IC50 in assay [1], in assay [3] and in assay [2] were 430 nM, 120 nM and 2900 nM, respectively.

`CS(=O)(=O)c1ccc(CNC(=O)c2cc(N)c(C#N)c(NCCN)n2)cc1` had an IC50 in assay [1] of 1600 nM.

For the molecule `CCOc1nc(C(=O)NCc2ccc(S(C)(=O)=O)cc2)cc(N)c1C#Cc1ccsc1`, the IC50 is 3430 nM in assay [1] and over 10000 nM in assay [3].

Turning to `CS(=O)(=O)c1ccc(CNC(=O)c2cc(N)c(C#N)c(-c3ccoc3)n2)cc1`, the IC50 worked out at 270 nM in assay [1], 530 nM in assay [3] and 4300 nM in assay [2].

For `CC(C)Nc1nc(C(=O)NCc2ccc(S(C)(=O)=O)cc2)cc(N)c1C#N`, the IC50 in assay [1] worked out at 67 nM; in assay [3], 84 nM; in assay [2], 490 nM.

In the case of `CS(=O)(=O)c1ccc(CNC(=O)c2cc(N)c(C#N)c(OCC3CC3)n2)cc1`, the IC50 in assay [1] worked out at 23 nM; in assay [3] it was 47 nM; in assay [2] it was 560 nM.

Take `COc1ccc(Oc2nc(C(=O)NCc3ccc(S(C)(=O)=O)cc3)cc(N)c2C#N)cc1`: the half-maximal inhibitory concentration (IC50) was 420 nM in assay [1] and 450 nM in assay [3].

As for `CS(=O)(=O)c1ccc(CNC(=O)c2cc(N)c(C#N)c(CCC(=O)O)n2)cc1`, the IC50 in assay [1] stood at 1640 nM; in assay [3], 6920 nM.

The values above are taken from ChEMBL document CHEMBL1139733, “Aminopyridine carboxamides as c-Jun N-terminal kinase inhibitors: targeting the gatekeeper residue and beyond” (Bioorg Med Chem Lett, 2006).
